Reference: US20140178898A1, “Method for Detecting Fat-Reducing Compounds” (National Central University, priority 2012, published 2014)

Experiments:
Assay type in all cases: cell-based
3T3-L1 adipocytes [1] = experiment: 2-deoxyglucose (2-DOG) uptake assay, EGCG alone
Procedure: (§1) In the first step (S1), which provides a clone of adipocytes to be cultured on a culture dish, the adipocytes are 3T3-L1 adipocytes (American Type Culture Collection, Manassas, Va.). 3T3-L1 adipocytes are differentiated from 3T3-L1 preadipocytes. To obtain the adipocytes, preadipocytes are seeded at a number of 6×10^4 cells per well on a sterile 12-well plate. After 3 and 5 days of the plating, the medium is changed and replaced with a new medium containing a differentiation agent, respectively. Day 0 of differentiating cells is set at the day when the differentiating agent is added in the beginning. The medium is the Dulbecco's Modified Eagle's Medium (DMEM) containing 10% fetal bovine serum (FBS), 100 U/ml of penicillin, and 100 μg/ml streptomycin. The differentiation agent is a cocktail solution containing a final concentration of 0.5 mM 3-Isobutyl-1-methylxanthine (IBMX), 5 μg/ml insulin, and 1 μM dexamethasone (DEX). After the 2-day incubation of the differentiation agent, the medium is changed to DMEM containing 10% FBS and 5 μg/ml insulin for an additional 4 days, and it is replaced with a new medium every 2 days. Day 6 differentiating cells are grown in DMEM containing 10% FBS for an additional 4 days. The medium is changed every 2 days. A total of 10 days is used for the process of differentiation to obtain the differentiated adipocytes and the cells are used for later experiments.
(§2) The first example of the present invention is to show a use of 2-deoxyglucose uptake assay for detecting the transportation activity of glucose transporter protein in the adipocytes (FIG. 2). This purpose is also to clarify the effect of different concentrations of EGCG on the IGF-I-induced and IGF-II-induced glucose uptake. At the first, the different concentrations of EGCG are added into the adipocytes, such as 1, 2, 5, 10, 20 and 50 μM. The duration of the EGCG pretreatment is defined as a first time and it is 120 minutes, wherein the first time period can range from 30 to 120 minutes, but it is not limited thereto. Then, the exposed time of 10 minutes to 10 nM IGF-I or 10 nM IGF-II is defined as a second time, wherein the second time can be 5 minutes shorter or last for 30 minutes, but it is not limited thereto. […] Then, 500 μl of RadioImmunoPrecipitation Assay (RIPA) buffer is added for fracturing the cells; 450 μl of cell solution is collected to evenly mix with 4 ml of scintillation liquid in a vial for a detection of radioactivity through a β-counter.
This invention provides a second example for clarifying the time course effects of EGCG on the IGF-stimulated glucose uptake in adipocytes (FIG. 3). […] After the incubation, the radioactivity is measured to indicate the transportation activity of glucose transporter protein in the adipocytes.

3T3-L1 adipocytes [2] = experiment: 2-deoxyglucose (2-DOG) uptake assay, IGF-I-stimulated glucose uptake; details: for IGF-I-stimulated increases in levels of adipocyte glucose uptake: then 10 nM IGF-I 10 minutes (FIG. 2A)
Procedure: as §1, §2
(§3) This invention provides a second example for clarifying the time course effects of EGCG on the IGF-stimulated glucose uptake in adipocytes (FIG. 3). […] After the incubation, the radioactivity is measured to indicate the transportation activity of glucose transporter protein in the adipocytes. […]

3T3-L1 adipocytes [3] = experiment: 2-deoxyglucose (2-DOG) uptake assay, IGF-II-stimulated glucose uptake
Procedure: (§4) In the first step (S1), which provides a clone of adipocytes to be cultured on a culture dish, the adipocytes are 3T3-L1 adipocytes (American Type Culture Collection, Manassas, Va.). 3T3-L1 adipocytes are differentiated from 3T3-L1 preadipocytes. To obtain the adipocytes, preadipocytes are seeded at a number of 6×10^4 cells per well on a sterile 12-well plate. After 3 and 5 days of the plating, the medium is changed and replaced with a new medium containing a differentiation agent, respectively. Day 0 of differentiating cells is set at the day when the differentiating agent is added in the beginning. […]
The first example of the present invention is to show a use of 2-deoxyglucose uptake assay for detecting the transportation activity of glucose transporter protein in the adipocytes (FIG. 2). […] Then, 500 μl of RadioImmunoPrecipitation Assay (RIPA) buffer is added for fracturing the cells; 450 μl of cell solution is collected to evenly mix with 4 ml of scintillation liquid in a vial for a detection of radioactivity through a β-counter.
as §3

[4] = system: glucose transporter 1 (GLUT1); experiment: Western blotting of GLUT1 protein in adipocyte fractions; details: EGCG in the presence and absence of IGF-I and IGF-II (FIGS. 5A, 6A)
Procedure: as §4, with “beginning. The medium is the Dulbecco's Modified Eagle's Medium (DMEM) containing 10% fetal bovine serum (FBS), 100 U/ml of penicillin, and 100 μg/ml streptomycin.” for “beginning.”
In the fourth step (S4), which collects the adipocytes for a detection of the expression level of at least one specific protein to be a reference value (i.e. an indicator) for reducing fat or for decreasing the glucose transport by the test compound, the specific proteins are glucose transporter 1 (GLUT1) and glucose transporter 4 (GLUT4) proteins (FIGS. 5 and 6). Levels of GLUT1 and GLUT4 protein expression in the total lysate, plasma membrane, and low-density microsome are analyzed by Western blotting. […]

[5] = system: glucose transporter 4 (GLUT4); experiment: Western blotting of GLUT4 protein in adipocyte fractions (translocation); details: for GLUT4 protein levels in the plasma membrane of adipocytes: IGF at 10 nM (FIGS. 5B, 6B); for GLUT4 expression levels in the low-density microsome: IGF at 10 nM (FIGS. 5C, 6C)
Procedure: as §1
In the fourth step (S4), which collects the adipocytes for a detection of the expression level of at least one specific protein to be a reference value (i.e. an indicator) for reducing fat or for decreasing the glucose transport by the test compound, the specific proteins are glucose transporter 1 (GLUT1) and glucose transporter 4 (GLUT4) proteins (FIGS. 5 and 6). Levels of GLUT1 and GLUT4 protein expression in the total lysate, plasma membrane, and low-density microsome are analyzed by Western blotting. FIGS. 5A, 5B and 5C are presented when the culture medium is added with or without IGF-I; whereas, in FIGS. 6A, 6B and 6C, IGF-II is added to the culture medium.

(−)-epigallocatechin gallate [EGCG]
level of adipocyte glucose uptake (3T3-L1 adipocytes [1]; 20 μM EGCG alone, 0.5, 1, or 2 hours (FIG. 3A)): not | level of adipocyte glucose uptake (3T3-L1 adipocytes [1]; 20 μM EGCG alone, 4 hours (FIG. 3A)): significantly altered | adipocyte glucose uptake (3T3-L1 adipocytes [1]; EGCG alone at 50 μM, 2 hours (FIG. 2A)): significantly decreased | glucose uptake in the adipocytes (3T3-L1 adipocytes [1]; EGCG alone at 1, 2, 5, 10, and 20 μM, 2 hours of treatment (FIG. 2A)): does not alter | IGF-I-increased levels of adipocyte glucose uptake (3T3-L1 adipocytes [2]; 20 μM EGCG pretreatment for 0.5 hours, suppressive effect lasts for 4 hours, 10 nM IGF-I): inhibits | IGF-I-increased level of adipocyte glucose uptake (3T3-L1 adipocytes [2]; 20 μM EGCG, 2-hour treatment, 10 nM IGF-I): decline to the corresponding level of glucose uptake to the control | IGF-I-stimulated increases in levels of adipocyte glucose uptake (3T3-L1 adipocytes [2]; 2-hour pretreatment with 1, 2, or 5 μM EGCG): not | IGF-I-stimulated increases in levels of adipocyte glucose uptake (3T3-L1 adipocytes [2]; 2-hour pretreatment with 10, 20, and 50 μM EGCG): suppresses | increase in the level of adipocyte glucose uptake induced by IGF-II (3T3-L1 adipocytes [3]; 0.5, 1, 2, and 4 hours after 20 μM EGCG pretreatment, 10 nM IGF-II): significantly reduced | IGF-II-increased levels of glucose uptake in adipocytes (3T3-L1 adipocytes [3]; EGCG at 10, 20, and 50 μM, 2-hour pretreatment, 10 nM IGF-II (FIG. 2B)): suppress | levels of GLUT1 protein in the total lysate of the adipocytes [4]: not altered | levels of GLUT4 protein in the total lysate of the adipocytes ([5]; EGCG in the presence and absence of IGF-I and IGF-II (FIGS. 5A, 6A)): not altered | IGF-increased levels of GLUT-4 protein in the plasma membrane ([5]; EGCG in the presence of IGF-I (FIG. 5B)): inhibits | IGF-decreased levels of GLUT-4 protein in the low-density microsome ([5]; EGCG in the presence of IGF-I (FIG. 5C)): blocked | IGF-increased levels of GLUT-4 protein in the plasma membrane ([5]; EGCG in the presence of IGF-II (FIG. 6B)): inhibits | IGF-decreased levels of GLUT-4 protein in the low-density microsome ([5]; EGCG in the presence of IGF-II (FIG. 6C)): blocked | translocation of GLUT4 from the cytosol to plasma membrane of the adipocytes induced by IGF treatment ([5]; FIGS. 5B, 5C, 6B and 6C): inhibited | GLUT-4 protein levels in the low-density microsome ([5]; pretreatment with EGCG alone): does not change | GLUT-4 protein levels in the plasma membrane ([5]; pretreatment with EGCG alone): does not change

IGF-I: insulin-like growth factor I, added to adipocytes at 10 nM
GLUT4 protein levels in the plasma membrane of adipocytes [5]: significantly increase | GLUT4 expression levels in the low-density microsome [5]: decrease

IGF-II: insulin-like growth factor II, added to adipocytes at 10 nM
GLUT4 protein levels in the plasma membrane of adipocytes [5]: significantly increase | GLUT4 expression levels in the low-density microsome [5]: decrease
